Test results reported in PubChem BioAssay AID248 (DTP/NCI, 2004).
Values joined by “and” are separate entries in the source; they are usually repeats but may differ in a detail not shown here. Identical values can stand only once. Inconclusive results and toxic doses are left out. No stated cut-off is given here; in the data, active means T/C of 150% or more; inactive means T/C below 125%.

Test system: L1210 leukemia ip in BDF1 mice, survival T/C
Test: NCI In Vivo Anticancer Drug Screen. Data for tumor model L1210 Leukemia (intraperitoneal) in B6D2F1 (BDF1) mice
Conditions: endpoint: mean survival time, higher = longer survival
Procedure, shortened: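 Each compound was tested against a transplantable tumor grown in mice. The endpoint was survival, with treated animals benchmarked against vehicle controls as a simple ratio.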

[1] = dose: 50.0 mg/kg/injection, schedule: Q01DX001 (ip), vehicle: carboxymethylcellulose (CMC)
[2] = dose: 100.0 mg/kg/injection, schedule: Q01DX001 (ip), vehicle: carboxymethylcellulose (CMC)
[3] = dose: 200.0 mg/kg/injection, schedule: Q01DX001 (ip), vehicle: carboxymethylcellulose (CMC)
[4] = dose: 400.0 mg/kg/injection, schedule: Q01DX001 (ip), vehicle: carboxymethylcellulose (CMC)
[5] = dose: 100.0 mg/kg/injection, schedule: Q04DX002 (ip), vehicle: saline with Tween-80
[6] = dose: 12.5 mg/kg/injection, schedule: Q04DX003 (ip), vehicle: saline with Tween-80
[7] = dose: 25.0 mg/kg/injection, schedule: Q04DX003 (ip), vehicle: saline with Tween-80
[8] = dose: 50.0 mg/kg/injection, schedule: Q04DX003 (ip), vehicle: saline with Tween-80
[9] = dose: 400.0 mg/kg/injection, schedule: Q04DX003 (ip), vehicle: saline with Tween-80
[10] = dose: 100.0 mg/kg/injection, schedule: Q01DX009 (ip), vehicle: saline with Tween-80
[11] = dose: 200.0 mg/kg/injection, schedule: Q01DX009 (ip), vehicle: saline with Tween-80
[12] = dose: 100.0 mg/kg/injection, schedule: Q01DX009 (ip), vehicle: Klucel (hydroxypropylcellulose) (HPC)
[13] = dose: 100.0 mg/kg/injection, schedule: Q04DX003 (ip), vehicle: Klucel (hydroxypropylcellulose) (HPC)
[14] = dose: 200.0 mg/kg/injection, schedule: Q01DX009 (ip), vehicle: Klucel (hydroxypropylcellulose) (HPC)
[15] = dose: 200.0 mg/kg/injection, schedule: Q04DX003 (ip), vehicle: Klucel (hydroxypropylcellulose) (HPC)
[16] = dose: 400.0 mg/kg/injection, schedule: Q01DX009 (ip), vehicle: Klucel (hydroxypropylcellulose) (HPC)
[17] = dose: 400.0 mg/kg/injection, schedule: Q04DX003 (ip), vehicle: Klucel (hydroxypropylcellulose) (HPC)
[18] = dose: 50.0 mg/kg/injection, schedule: Q01DX009 (ip), vehicle: saline with Tween-80
[19] = dose: 100.0 mg/kg/injection, schedule: Q04DX003 (ip), vehicle: saline with Tween-80
[20] = dose: 25.0 mg/kg/injection, schedule: Q01DX009 (ip), vehicle: saline with Tween-80
[21] = dose: 100.0 mg/kg/injection, schedule: Q04DX002 (ip), vehicle: Klucel (hydroxypropylcellulose) (HPC)

Measured: T/C

CCC(=O)CC(C)CC (stereo unspecified)
inactive: [1] 94 % of control | [2] 102 % of control | [3] 91 % of control | [4] 102 % of control

Cc1onc(-c2ccccc2Cl)c1C(=O)NC(=S)NC1CC(C)CC(C)(C)C1 (stereo unspecified)
inactive: dose: 25.0 mg/kg/injection, schedule: Q04DX002 (ip), vehicle: saline with Tween-80 97 % of control | dose: 50.0 mg/kg/injection, schedule: Q04DX002 (ip), vehicle: saline with Tween-80 90 % of control | [5] 90 % of control

CC(C)CCCC(C)C1CCC2C3CC=C4CC(C5C(=O)NC(=O)NC5=O)CCC4(C)C3CCC12C (stereo unspecified)
inactive: [6] 96 % of control | [7] 96 % of control | [8] 87 % of control | [9] 88 % of control

Cc1ccc(NC(=O)C(Br)C(Br)C(=O)O)cc1Cl (stereo unspecified)
inactive: [10] 107 % of control | [11] 97 % of control

Clc1ccc(Br)c(Cl)c1
inactive: [12] 98 % of control | [13] 94 % of control | [14] 94 % of control | [15] 109 % of control | [16] 92 % of control | [17] 93 % of control

OC1(Cc2ccccc2)CCCCCC1
inactive: dose: 100.0 mg/kg/injection, schedule: Q01DX005 (ip), vehicle: other 118 % of control | dose: 100.0 mg/kg/injection, schedule: Q01DX009 (ip), vehicle: other 103 % of control | dose: 200.0 mg/kg/injection, schedule: Q01DX005 (ip), vehicle: other 93 % of control | dose: 200.0 mg/kg/injection, schedule: Q01DX009 (ip), vehicle: other 118 % of control | dose: 400.0 mg/kg/injection, schedule: Q01DX005 (ip), vehicle: other 93 % of control | dose: 400.0 mg/kg/injection, schedule: Q01DX009 (ip), vehicle: other 100 % of control

O=C1c2ccccc2C(=O)c2c(O)c(Cc3ccccn3)cc(O)c21
inactive: dose: 100.0 mg/kg/injection, schedule: Q04DX003 (ip), vehicle: saline sonified 89 % of control | dose: 200.0 mg/kg/injection, schedule: Q04DX003 (ip), vehicle: saline sonified 89 % of control | dose: 400.0 mg/kg/injection, schedule: Q04DX003 (ip), vehicle: saline sonified 94 % of control

Nc1c2ccccc2cc2ccccc12
inactive: [18] 91 % of control | [10] 97 % of control | [19] 96 % of control and 112 % of control | [11] 110 % of control | dose: 200.0 mg/kg/injection, schedule: Q04DX003 (ip), vehicle: saline with Tween-80 91 % of control and 97 % of control | [9] 88 % of control

CN1COc2c(nc(-c3ccccc3)[nH]c2=O)C1
inactive: [1] 101 % of control | [2] 98 % of control | [3] 98 % of control | [4] 95 % of control

O=Cc1nc2ccccc2cc1CCl
inactive: dose: 75.0 mg/kg/injection, schedule: Q01DX001 (ip), vehicle: saline 92 % of control

O=C1OC(/C=C/c2ccccc2)=NC/1=C\c1ccc(O)cc1
inactive: [5] 104 % of control | dose: 200.0 mg/kg/injection, schedule: Q04DX002 (ip), vehicle: saline with Tween-80 93 % of control | dose: 400.0 mg/kg/injection, schedule: Q04DX002 (ip), vehicle: saline with Tween-80 93 % of control

CCOC(CN1C(=O)c2ccccc2C1=O)OCC
inactive: [18] 96 % of control | [10] 96 % of control | [11] 93 % of control

CC(=O)Nc1cccc2c1C(=O)c1c(c(O)c3ccccc3c1O)C2=O
inactive: dose: 0.12 mg/kg/injection, schedule: Q01DX009 (ip), vehicle: Klucel (hydroxypropylcellulose) (HPC) 101 % of control | dose: 0.25 mg/kg/injection, schedule: Q01DX009 (ip), vehicle: Klucel (hydroxypropylcellulose) (HPC) 100 % of control | dose: 0.25 mg/kg/injection, schedule: Q04DX003 (ip), vehicle: Klucel (hydroxypropylcellulose) (HPC) 97 % of control | dose: 0.5 mg/kg/injection, schedule: Q01DX009 (ip), vehicle: Klucel (hydroxypropylcellulose) (HPC) 102 % of control | dose: 0.5 mg/kg/injection, schedule: Q04DX003 (ip), vehicle: Klucel (hydroxypropylcellulose) (HPC) 97 % of control | dose: 1.0 mg/kg/injection, schedule: Q01DX009 (ip), vehicle: Klucel (hydroxypropylcellulose) (HPC) 97 % of control | dose: 1.0 mg/kg/injection, schedule: Q04DX003 (ip), vehicle: Klucel (hydroxypropylcellulose) (HPC) 97 % of control | dose: 2.0 mg/kg/injection, schedule: Q01DX009 (ip), vehicle: Klucel (hydroxypropylcellulose) (HPC) 98 % of control | dose: 2.0 mg/kg/injection, schedule: Q04DX003 (ip), vehicle: Klucel (hydroxypropylcellulose) (HPC) 101 % of control | dose: 2.0 mg/kg/injection, schedule: Q04DX003 (ip), vehicle: water 95 % of control | dose: 3.12 mg/kg/injection, schedule: Q01DX009 (ip), vehicle: saline with Tween-80 102 % of control | dose: 4.0 mg/kg/injection, schedule: Q01DX009 (ip), vehicle: Klucel (hydroxypropylcellulose) (HPC) 105 % of control | dose: 4.0 mg/kg/injection, schedule: Q04DX003 (ip), vehicle: water 100 % of control | dose: 6.25 mg/kg/injection, schedule: Q01DX009 (ip), vehicle: saline with Tween-80 100 % of control | dose: 8.0 mg/kg/injection, schedule: Q04DX003 (ip), vehicle: water 102 % of control | dose: 12.5 mg/kg/injection, schedule: Q01DX009 (ip), vehicle: saline with Tween-80 97 % of control | [6] 100 % of control | dose: 16.0 mg/kg/injection, schedule: Q04DX003 (ip), vehicle: water 96 % of control and 103 % of control | [20] 102 % of control | [7] 96 % of control | dose: 32.0 mg/kg/injection, schedule: Q04DX003 (ip), vehicle: water 96 % of control | [18] 96 % of control | [8] 103 % of control | dose: 64.0 mg/kg/injection, schedule: Q04DX003 (ip), vehicle: water 97 % of control | [19] 96 % of control

O=C(O)c1cc(S(=O)(=O)O)cc([N+](=O)[O-])c1O
inactive: [21] 96 % of control | dose: 200.0 mg/kg/injection, schedule: Q04DX002 (ip), vehicle: Klucel (hydroxypropylcellulose) (HPC) 104 % of control | dose: 400.0 mg/kg/injection, schedule: Q04DX002 (ip), vehicle: Klucel (hydroxypropylcellulose) (HPC) 96 % of control

O=C1c2c(c(O)c3ccccc3c2O)C(=O)C2CC=CCC12 (stereo unspecified)
inactive: [20] 105 % of control | [18] 110 % of control | [10] 104 % of control | [11] 104 % of control | dose: 400.0 mg/kg/injection, schedule: Q01DX009 (ip), vehicle: saline with Tween-80 104 % of control

C[n+]1cccc2cccc(O)c21
inactive: [21] 115 % of control

CCCCP(=S)(CCCC)C1CCCC1
inactive: [13] 104 % of control | [15] 107 % of control | [17] 101 % of control

Cc1ccc(Cl)c(OCc2cc(=O)[nH]c(=O)[nH]2)c1
inactive: dose: 10.0 mg/kg/injection, schedule: Q04DX003 (ip), vehicle: saline with Tween-80 101 % of control | dose: 20.0 mg/kg/injection, schedule: Q04DX003 (ip), vehicle: saline with Tween-80 92 % of control | dose: 40.0 mg/kg/injection, schedule: Q04DX003 (ip), vehicle: saline with Tween-80 95 % of control

CCCCCCCCCCCC[N+](C)(C)C.C[As](C)(=O)[O-]
inactive: dose: 6.25 mg/kg/injection, schedule: Q01DX009 (ip), vehicle: saline 101 % of control | dose: 12.5 mg/kg/injection, schedule: Q01DX009 (ip), vehicle: saline 101 % of control | dose: 25.0 mg/kg/injection, schedule: Q01DX009 (ip), vehicle: saline 97 % of control and 101 % of control

O=[N+]([O-])c1cccc(C=Nc2cc(Cl)ccc2O)c1
inactive: [12] 95 % of control and 86 % of control | [14] 96 % of control and 97 % of control | [16] 100 % of control and 91 % of control
